Tested on: 5×FAD mice
Experiment: Y-maze test
Assay type: in vivo, mouse
Method: Parathyroid hormone (human) was purchased from TOCRIS Bioscience (Cat #3011/1, Abingdon, United Kingdom). WT or 5×FAD mice (both male and female) were treated with PTH1-34 intermittently [once daily injection of hPTH1-34 (50 μg/Kg) or vehicle (0.9% sodium chloride) (as a control) by subcutaneous injection, starting at 2-MO, 5 days per week] as described previously. Mice were then subjected to behavioral tests and sacrificed for examinations of their bone and brain phenotypes at the indicated ages.
Mice (female and male) at the age of ˜5-MO were subjected to behavioral studies. The experimental procedures are described as previously. […] The total arm entries and the number of tri-ads were recorded to quantify the percentage of spontaneous alternation. For novel object recognition (NOR), which tests mouse's memory ability for a novel object, 20 min were recorded to analyze the time to explore the old object vs. the new object of each mouse. […] During test trials, one of the objects was replaced with a new object and mice were free to explore for another 20 min, and the time spent exploring the new object and the old object was recorded. The discrimination index is quantified as the novelty object preference, which is the time spent exploring the new object minus the time exploring the old object over the total exploration time.

## CC[C@H](C)[C@H](NC(=O)[C@H](CCC(=O)O)NC(=O)[C@H](CO)NC(=O)[C@@H](NC(=O)[C@@H](N)CO)C(C)C)C(=O)N[C@@H](CCC(N)=O)C(=O)N[C@@H](CC(C)C)C(=O)N[C@@H](CCSC)C(=O)N[C@@H](Cc1cnc[nH]1)C(=O)N[C@@H](CC(N)=O)C(=O)N[C@@H](CC(C)C)C(=O)NCC(=O)N[C@@H](CCCCN)C(=O)N[C@@H](Cc1cnc[nH]1)C(=O)N[C@@H](CC(C)C)C(=O)N[C@@H](CC(N)=O)C(=O)N[C@@H](CO)C(=O)N[C@@H](CCSC)C(=O)N[C@@H](CCC(=O)O)C(=O)N[C@@H](CCCN=C(N)N)C(=O)N[C@H](C(=O)N[C@@H](CCC(=O)O)C(=O)N[C@@H](Cc1c[nH]c2ccccc12)C(=O)N[C@@H](CC(C)C)C(=O)N[C@@H](CCCN=C(N)N)C(=O)N[C@@H](CCCCN)C(=O)N[C@@H](CCCCN)C(=O)N[C@@H](CC(C)C)C(=O)N[C@@H](CCC(N)=O)C(=O)N[C@@H](CC(=O)O)C(=O)N[C@H](C(=O)N[C@@H](Cc1cnc[nH]1)C(=O)N[C@@H](CC(N)=O)C(=O)N[C@@H](Cc1ccccc1)C(=O)O)C(C)C)C(C)C [PTH1-34]
5×FAD female mice ~5-MO vs Veh-treated 5×FAD female
  Y maze spontaneous alternation: an increase in spontaneous alternation
5×FAD male mice ~5-MO vs Veh
  Y maze spontaneous alternation: positive effect on the spontaneous alternation
